This is an account of results in paper PMC6746264, “Novel tyrosinase inhibitory peptide with free radical scavenging ability” (Journal of Enzyme Inhibition and Medicinal Chemistry, 2019).

Entries after “also recorded” stand apart in the source; their conditions may differ. No end group written: not given here.

In data set [1] the test system is human melanoma cell line (A375). In words: Intracellular tyrosinase activity inhibition assay (melanin production). It counts as cell-based. Conditions: A375 cells, 60 h, N = 3. How it is done:
(§1) A human melanoma cell line (A375) was provided by the Stem Cell Bank, Chinese Academy of Sciences. The A375 cell line was cultured in DMEM media containing 10% fetal bovine serum and 1% penicillin/streptomycin in an incubator at 37 °C and an atmosphere containing 5% CO2[32].
The A375 cells were seeded at a density of 1 × 10^5 cells/well in a 6-well plate and cultured for 12 h. […] After adding 0.5 ml NaOH (1 M), the cells were disrupted by sonication, and incubated at 50 °C for 10 min.

A further data set deals with A375 melanoma cells. In words: Number of proliferated melanoma cells. It is filed as cell-based, human. How it is done:
Fig. S3. The OD values at 475 nm of the solutions shown in Fig. 1A after storage for 12 months. Error
Fig. S4. Total number of proliferated melanoma cells in the presence of different tyrosinase inhibitors.
The concentration of each inhibitor is 2.5 mM. Error bars represent S.D. N=3. […]

In the next data set the test system is A375 cells. In words: MTT assay (cell viability). It counts as cell-based, human. Conditions: 24 h, inhibitors 2.5 mM in PBS, absorbance 492 nm. How it is done: as §1
The A375 cells were seeded at a density of 1 × 10^4 cells per well in a 96-well plate. They were incubated for 24 h at 37 °C under an atmosphere containing 5% CO2. Then, different tyrosinase inhibitors were added into the culture media. After incubation for 24 h, the cell viability was measured using the MTT assay, which was based on the conversion of MTT to formazan crystals by mitochondrial dehydrogenases. Briefly, the cell cultures were incubated with a 20 µl MTT solution (5 mg/mL) for 4 h at 37 °C. The culture supernatant was carefully removed from the well, and 150 µl DMSO was added followed by shaking for 10 min to dissolve the formazan crystals. Absorbance at 492 nm was measured using a microplate reader (VersaMax Microplate Reader)[35]. Cell viability of the control group in which […] was replaced by PBS was defined as 100%[36].
(In general: Tetrazolium dyes change colour on reduction, which living cells bring about.)

The conditions of data set [2]: cited from earlier work. An excerpt:
However, the adverse side effects associated with their use have led to restrictions in their applications.

For another data set, the target named is mushroom tyrosinase (Agaricus bisporus, UniProt C7FF04). As to the kind of experiment: Comparison of tyrosinase inhibition rate (maximum reaction rate, IC50). It counts as biochemical. How it is done:
Figure 2. […] (D) The plot of the percentage of enzyme activity (Vss) vs the […] concentration [I]. IC50 of the inhibitors were directly obtained from the plots.
Before conducting the experiment, all the solutions, 96-well plates, and tips were heated at 37 °C. Equal volumes of tyrosine solutions (final concentration of 2.5 mM) were added to the 96-well plates, mixed with different concentrations of the inhibitors mentioned above and incubated for 10 min at 37 °C. Then, equal volume of the tyrosinase solution (100 U per well) was added to the 96-well plate using a multichannel pipette, which was placed immediately in a microplate reader under shaking conditions for 30 s. Finally, the light absorbance value at 475 nm was recorded at 37 °C continuously for 2 h with intervals of 20 s. The maximum reaction rate of tyrosinase at each concentration of the inhibitor was calculated.

In a further data set the test system is tyrosinase. In words: CD spectroscopy. It counts as binding, mushroom. Conditions: 200–260 nm, 293.15 K, mixture with tyrosinase, 0.2 mg/ml. How it is done: The CD measurements were performed at 293.15 K with a bandwidth, step interval and scanning speed of 1.0 nm, 1 nm, and 50 nm min^−1, respectively.
Figure 4.

Where [3] appears, read: 1 mM, comparison among arbutin, glutathione and EF-5.

Sequence of mushroom tyrosinase (C7FF04 1-392): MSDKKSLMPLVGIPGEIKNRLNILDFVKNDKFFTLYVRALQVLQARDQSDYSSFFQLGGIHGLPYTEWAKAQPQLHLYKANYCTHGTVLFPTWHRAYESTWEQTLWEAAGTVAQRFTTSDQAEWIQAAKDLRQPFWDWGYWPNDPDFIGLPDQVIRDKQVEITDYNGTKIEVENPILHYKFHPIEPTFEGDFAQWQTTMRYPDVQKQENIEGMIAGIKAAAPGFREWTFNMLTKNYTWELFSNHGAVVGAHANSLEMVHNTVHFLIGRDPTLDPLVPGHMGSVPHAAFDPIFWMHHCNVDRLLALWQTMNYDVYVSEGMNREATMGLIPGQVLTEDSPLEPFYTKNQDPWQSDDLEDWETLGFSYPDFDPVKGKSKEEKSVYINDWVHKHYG

With `OC[C@H]1O[C@@H](Oc2ccc(O)cc2)[C@H](O)[C@@H](O)[C@@H]1O` [arbutin], the melanin inhibitory effect entry was “the melanin inhibitory effects of arbutin and glutathione were similar” in data set [1] (setting [3]); “similar” in data set [1] (arbutin 5 mM compared with EF-5 0.5 mM). For the same compound, the “total concentration of cells” value in the data set on A375 melanoma cells (A375, arbutin 5 mM group versus EF-5 0.5 mM group) is given as “much lesser than that in the EF-5 (0.5 mM) group”. Also, the “inhibition of cell proliferation” value in the data set on A375 melanoma cells (A375 melanoma cells, 2.5 mM, N=3) is “inhibit proliferation of the cells”. Besides, in the data set on A375 cells, the “cell viability / toxicity” value was “the inhibitory effect of arbutin on the viability of melanoma cells is significant”. Further, the “contact dermatitis / exogenous ochronosis” value in data set [2] is reported as “contact dermatitis”.

For `Oc1ccc(O)cc1` [hydroquinone], the “contact dermatitis / exogenous ochronosis” value in data set [2] is given as “exogenous ochronosis”.

`O=c1cc(CO)occ1O` [kojic acid]: the carcinogenicity result in data set [2] is listed as “has demonstrated carcinogenicity”.

ECGYF [EF-5, ECGYF]: the “cell viability / toxicity” value in the data set with A375 cells is given as “nontoxic to cells; also recorded: nontoxic to the melanocytes”. Also, the “IC50 relative to IC50 of arbutin” value against mushroom tyrosinase (EF-5 IC50 as fraction of that of arbutin) is “about 1/12”.

Consider glutathione, for which the melanin inhibitory effect result in data set [1] (setting [3]) was “the melanin inhibitory effects of arbutin and glutathione were similar”. In the data set on tyrosinase, the “change of CD spectrum of tyrosinase” value is listed as “does not show such changes”. Further, the “lag phase of the catalytic reaction of tyrosinase” value at mushroom tyrosinase (475 nm, 37 °C, compared with arbutin) was “may significantly increase the lag phase”.
